According to patent publication US6274715A, “Tricyclic erythromycin derivatives” (priority 1997, dated 2001):
Values after ≈ are worked out from the molar mass of the structure shown. Where two headings read alike, the source gives them in different places.

Experiments:
Format in all cases: cell-based
[1] = test system: PSEUDOMONAS AERUGINOSA BMH10; test: In vitro antibacterial activity, MIC, BHI agar dilution
[2] = test system: STAPHYLOCOCCUS AUREUS ATCC 6538P; test: as above; details: S. aureus ATCC 6538P, 35-37° C., 20 to 24 hours, listed as Ex 35, unit assumed
[3] = test system: STAPHYLOCOCCUS AUREUS 1775; test: as above; details: S. aureus 1775, unit assumed
[4] = test system: PSEUDOMONAS AERUGINOSA K799/WT; test: as above; details: P. aeruginosa K799/WT
[5] = test system: PROVIDENCIA STUARTII CMX 640; details: P. stuartii CMX 640; BHI agar; unit assumed
[6] = test system: PSEUDOMONAS AERUGINOSA DPHD-5263; test: In vitro antibacterial activity, MIC, BHI agar dilution; details: P. aeruginosa DPHD-5263, unit assumed
ESCHERICHIA COLI JUHL = details: E. coli JUHL, BHI agar, unit assumed
[7] = test system: STAPHYLOCOCCUS AUREUS A-5278; test: In vitro antibacterial activity, MIC, BHI agar dilution; details: S. aureus A-5278, unit assumed
[8] = test system: STREPTOCOCCUS BOVIS A-5169; test: as above; details: S. bovis A-5169, unit assumed
[9] = test system: ENTEROBACTER AEROGENES ATCC 13048; test: as above
[10] = test system: STAPHYLOCOCCUS AUREUS CMX 642A; test: as above; details: S. aureus CMX 642A, unit assumed
[11] = test system: STAPHYLOCOCCUS AUREUS NCTC10649M; test: as above; details: S. aureus NCTC10649M, unit assumed
[12] = test system: STREPTOCOCCUS PYOGENES PIU 2548; test: as above
ESCHERICHIA COLI H560 = test: as above
[13] = test system: PSEUDOMONAS AERUGINOSA K799/61; test: as above
[14] = test system: MYCOBACTERIUM SMEGMATIS ATCC 114; test: as above; details: M. smegmatis ATCC 114, unit assumed
[15] = test system: PSEUDOMONAS AERUGINOSA 5007; test: as above; details: P. aeruginosa 5007, unit assumed
[16] = test system: KLEBSIELLA PNEUMONIAE ATCC 8045; test: as above; details: K. pneumoniae ATCC 8045, unit assumed
M[…] ATCC 9341 = test: as above; details: M. luteus ATCC 9341, unit assumed
Experimental: (§1) Representative compounds of the present invention were assayed in vitro for antibacterial activity as follows: Twelve petri dishes containing successive aqueous dilutions of the test compound mixed with 10 mL of sterilized Brain Heart Infusion (BHI) agar (Difco 0418-01-5) were prepared. Each plate was inoculated with 1:100 (or 1:10 for slow-growing strains, such as Micrococcus and Streptococcus) dilutions of up to 32 different microorganisms, using a Steers replicator block. The inoculated plates were incubated at 35-37° C. for 20 to 24 hours. In addition, a control plate, using BHI agar containing no test compound, was prepared and incubated at the beginning and end of each test.
(§2) An additional plate containing a compound having known susceptibility patterns for the organisms being tested and belonging to the same antibiotic class as the test compound was also prepared and incubated as a further control, as well as to provide test-to-test comparability. Erythromycin A was used for this purpose.
(§3) After incubation, each plate was visually inspected. The minimum inhibitory concentration (MIC) was defmed as the lowest concentration of drug yielding no growth, a slight haze, or sparsely isolated colonies on the inoculum spot as compared to the growth control.

STR[…] 508 = test: as above
Experimental: as §1, §2, §3

EN[…] ATCC 8043 = test: as above; details: E. faecium ATCC 8043, unit assumed
Experimental: as §1, §2, §3

[17] = test system: STREPTOCOCCUS PYOGENES 930; test: as above
ESCHERICHIA COLI KNK 437 = details: E. coli KNK 437; BHI agar; unit assumed
[18] = test system: STAPHYLOCOCCUS EPIDERMIDIS 3519; details: S. epidermidis 3519, BHI agar, unit assumed
CANDIDA ALBICANS CCH 442 = test: In vitro antibacterial activity, MIC, BHI agar dilution
[19] = test system: PSEUDOMONAS AERUGINOSA DPHD-2862; test: as above; details: P. aeruginosa DPHD-2862, unit assumed
PSEUDOMONAS CEPACIA 296I = test: as above; details: P. cepacia 296I, unit assumed
[20] = test system: STREPTOCOCCUS PYOGENES EES61; test: as above
[21] = test system: STAPHYLOCOCCUS AUREUS CMX 553; test: as above; details: S. aureus CMX 553, unit assumed
ESCHERICHIA COLI DC-2 = test: as above; details: E. coli DC-2, unit assumed
M[…] ATCC 4698 = test: as above; details: M. luteus ATCC 4698, unit assumed
Experimental: as §1, §2, §3

ESCHERICHIA COLI SS = test: as above; details: E. coli SS
[22] = S. agalactiae CMX 508, unit assumed
[23] = C. albicans CCH 442, unit assumed
[24] = P. aeruginosa BMH10, unit assumed
[25] = S. pyogenes EES61, unit assumed
[26] = E. aerogenes ATCC 13048, unit assumed
[27] = S. pyogenes PIU 2548, unit assumed

SMILES	MIC [3] [µg/mL]	MIC [5] [µg/mL]	MIC [6] [µg/mL]	MIC [7] [µg/mL]	MIC [8] [µg/mL]	MIC [10] [µg/mL]	MIC [11] [µg/mL]	MIC [14] [µg/mL]	MIC [15] [µg/mL]	MIC [16] [µg/mL]	MIC (M[…] ATCC 9341) [µg/mL]	MIC (STR[…] 508; [22]) [µg/mL]	MIC (EN[…] ATCC 8043) [µg/mL]	MIC ([17]; S. pyogenes 930, unit assumed) [µg/mL]	MIC (ESCHERICHIA COLI KNK 437) [µg/mL]	MIC (CANDIDA ALBICANS CCH 442; [23]) [µg/mL]	MIC [19] [µg/mL]	MIC (PSEUDOMONAS CEPACIA 296I) [µg/mL]	MIC [12, 27] [µg/mL]	MIC (M[…] ATCC 4698) [µg/mL]	further results
CCC1OC(=O)C(C)C(=O)C(C)C(OC2OC(C)CC(N(C)C)C2O)C(C)(OC)CC(C)C2=NCC(CCc3ccccc3)N3C(=O)OC1(C)C3C2C (stereo not shown) [Example 35]	> 100	> 100	> 100	> 100	0.01 (≈ 0.0135 µM)	0.78 (≈ 1.05 µM)	0.78 (≈ 1.05 µM)	0.39 (≈ 0.526 µM)	> 100	> 100	0.2 (≈ 0.27 µM)	0.02 (≈ 0.027 µM)	0.2 (≈ 0.27 µM)	50 (≈ 67.4 µM)	100 (≈ 135 µM)	> 100	> 100	100 (≈ 135 µM)			MIC ([1]; P. aeruginosa BMH10, listed as Ex 35, unit assumed): > 100 µg/mL; MIC [2]: 0.39 µg/mL (≈ 0.526 µM); MIC ([4]; listed as Ex 35, unit assumed): > 100 µg/mL; MIC (ESCHERICHIA COLI JUHL; listed as Ex 35): > 100 µg/mL; MIC ([9]; E. aerogenes ATCC 13048, listed as Ex 35, unit assumed): 100 µg/mL (≈ 135 µM); MIC ([12]; S. pyogenes PIU 2548, listed as Ex 35, unit assumed): 0.39 µg/mL (≈ 0.526 µM); MIC (ESCHERICHIA COLI H560; E. coli H560, listed as Ex 35, unit assumed): 50 µg/mL (≈ 67.4 µM); MIC ([13]; P. aeruginosa K799/61, listed as Ex 35, unit assumed): 3.1 µg/mL (≈ 4.18 µM); MIC ([18]; listed as Ex 35): 0.39 µg/mL (≈ 0.526 µM)
CC[C@H]1OC(=O)[C@H](C)C(=O)[C@H](C)[C@@H](O[C@@H]2O[C@H](C)C[C@H](N(C)C)[C@H]2O)[C@](C)(OC)C[C@@H](C)C2=NC3CN(CC)CC3N3C(=O)O[C@@]1(C)[C@H]3[C@H]2C (stereo partly shown) [Example 115]	> 100	> 100	> 100	> 100	≤ 0.005	1.56 (≈ 2.21 µM)	0.78 (≈ 1.1 µM)	12.5 (≈ 17.7 µM)	> 100		0.1 (≈ 0.141 µM)	0.05 (≈ 0.0707 µM)	0.1 (≈ 0.141 µM)	> 100	25 (≈ 35.4 µM)	> 100	> 100	> 100	0.78 (≈ 1.1 µM)	0.39 (≈ 0.552 µM)	MIC [1, 24]: > 100 µg/mL; MIC ([4]; unit assumed): > 100 µg/mL; MIC (ESCHERICHIA COLI JUHL): > 100 µg/mL; MIC [20, 25]: 0.05 µg/mL (≈ 0.0707 µM); MIC [21]: 1.56 µg/mL (≈ 2.21 µM); MIC [9, 26]: 50 µg/mL (≈ 70.7 µM); MIC (ESCHERICHIA COLI DC-2): 50 µg/mL (≈ 70.7 µM); MIC (ESCHERICHIA COLI H560; E. coli H560, unit assumed): 12.5 µg/mL (≈ 17.7 µM); MIC ([13]; P. aeruginosa K799/61, unit assumed): 0.78 µg/mL (≈ 1.1 µM); MIC [18]: 1.56 µg/mL (≈ 2.21 µM); MIC (ESCHERICHIA COLI SS; unit assumed): 0.39 µg/mL (≈ 0.552 µM)
CCC1OC(=O)C(C)C(=O)C(C)C(OC2OC(C)CC(N(C)C)C2O)C(C)(OC)CC(C)C2=NCC(C)(CN(C)C)N3C(=O)OC1(C)C3C2C (stereo not shown) [Example 136]	> 100	> 100	> 100	> 100	0.02 (≈ 0.0282 µM)	1.56 (≈ 2.2 µM)		6.2 (≈ 8.75 µM)	> 100	> 100	0.1 (≈ 0.141 µM)	0.1 (≈ 0.141 µM)	0.2 (≈ 0.282 µM)	> 100	> 100	> 100	> 100	> 100	1.56 (≈ 2.2 µM)	0.78 (≈ 1.1 µM)	MIC [1, 24]: > 100 µg/mL; MIC ([4]; unit assumed): > 100 µg/mL; MIC (ESCHERICHIA COLI JUHL): 100 µg/mL (≈ 141 µM); MIC [20, 25]: 0.1 µg/mL (≈ 0.141 µM); MIC [21]: 1.56 µg/mL (≈ 2.2 µM); MIC [9, 26]: > 100 µg/mL; MIC (ESCHERICHIA COLI DC-2): > 100 µg/mL; MIC (ESCHERICHIA COLI H560; E. coli H560, unit assumed): 100 µg/mL (≈ 141 µM); MIC [18]: 1.56 µg/mL (≈ 2.2 µM); MIC (ESCHERICHIA COLI SS; unit assumed): 0.78 µg/mL (≈ 1.1 µM)
CC[C@H]1OC(=O)[C@H](C)C(=O)[C@H](C)[C@@H](O[C@@H]2O[C@H](C)C[C@H](N(C)C)[C@H]2O)[C@](C)(OC)C[C@@H](C)C2=NC(COCc3ccc(Cl)cc3)C(COCc3ccc(Cl)cc3)N3C(=O)O[C@@]1(C)[C@H]3[C@H]2C (stereo partly shown) [Example 148]				12.5 (≈ 13.2 µM)	0.2 (≈ 0.211 µM)								0.78 (≈ 0.824 µM)						3.1 (≈ 3.27 µM)	1.56 (≈ 1.65 µM)	MIC ([20]; S. pyogenes EES61, listed as Ex 148, unit assumed): 0.2 µg/mL (≈ 0.211 µM); MIC ([13]; P. aeruginosa K799/61, listed as Ex 148, unit assumed): 25 µg/mL (≈ 26.4 µM); MIC (STR[…] 508; S. agalactiae CMX 508, listed as Ex 148, unit assumed): 0.39 µg/mL (≈ 0.412 µM); MIC ([17]; S. pyogenes 930, listed as Ex 148, unit assumed): 6.2 µg/mL (≈ 6.55 µM); MIC (CANDIDA ALBICANS CCH 442; C. albicans CCH 442, listed as Ex 148, unit assumed): > 100 µg/mL; MIC (ESCHERICHIA COLI SS; listed as Ex 148, unit assumed): 25 µg/mL (≈ 26.4 µM)
